Measured values as given in PubChem BioAssay AID248 (DTP/NCI, 2004).
“And” between values parts separate entries of the source, which are not always exact repeats. Identical values can stand only once. Toxic doses and inconclusive results are not listed. Cut-off read from the data, not from the text of the source: active = T/C of 150% or more; inactive = T/C below 125%.

Tested on: L1210 leukemia ip in BDF1 mice, survival T/C
Assay: NCI In Vivo Anticancer Drug Screen. Data for tumor model L1210 Leukemia (intraperitoneal) in B6D2F1 (BDF1) mice
Conditions: endpoint: mean survival time, higher = longer survival
Outline: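 Ratio derived from survival: compound-dosed mice over vehicle-dosed mice, all bearing a transplantable tumor.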

[1] = dose: 100.0 mg/kg/injection, schedule: Q01DX009 (ip), vehicle: saline with Tween-80
[2] = dose: 100.0 mg/kg/injection, schedule: Q04DX003 (ip), vehicle: saline with Tween-80
[3] = dose: 200.0 mg/kg/injection, schedule: Q01DX009 (ip), vehicle: saline with Tween-80
[4] = dose: 200.0 mg/kg/injection, schedule: Q04DX003 (ip), vehicle: saline with Tween-80
[5] = dose: 400.0 mg/kg/injection, schedule: Q01DX009 (ip), vehicle: saline with Tween-80
[6] = dose: 400.0 mg/kg/injection, schedule: Q04DX003 (ip), vehicle: saline with Tween-80
[7] = dose: 100.0 mg/kg/injection, schedule: Q04DX003 (ip), vehicle: Klucel (hydroxypropylcellulose) (HPC)
[8] = dose: 200.0 mg/kg/injection, schedule: Q04DX003 (ip), vehicle: Klucel (hydroxypropylcellulose) (HPC)
[9] = dose: 400.0 mg/kg/injection, schedule: Q04DX003 (ip), vehicle: Klucel (hydroxypropylcellulose) (HPC)
[10] = dose: 100.0 mg/kg/injection, schedule: Q01DX001 (ip), vehicle: carboxymethylcellulose (CMC)
[11] = dose: 200.0 mg/kg/injection, schedule: Q01DX001 (ip), vehicle: carboxymethylcellulose (CMC)
[12] = dose: 400.0 mg/kg/injection, schedule: Q01DX001 (ip), vehicle: carboxymethylcellulose (CMC)
[13] = dose: 25.0 mg/kg/injection, schedule: Q01DX009 (ip), vehicle: Klucel (hydroxypropylcellulose) (HPC)
[14] = dose: 50.0 mg/kg/injection, schedule: Q01DX009 (ip), vehicle: Klucel (hydroxypropylcellulose) (HPC)
[15] = dose: 100.0 mg/kg/injection, schedule: Q01DX009 (ip), vehicle: Klucel (hydroxypropylcellulose) (HPC)
[16] = dose: 200.0 mg/kg/injection, schedule: Q01DX009 (ip), vehicle: Klucel (hydroxypropylcellulose) (HPC)
[17] = dose: 400.0 mg/kg/injection, schedule: Q01DX009 (ip), vehicle: Klucel (hydroxypropylcellulose) (HPC)

Measured: T/C

C1=CC2C3CC(OCCOC4CC5CC4C4CC=CC54)C(C3)C2C1 (stereo not given)
inactive: [1] 97 % of control | [2] 98 % of control | [3] 93 % of control | [4] 100 % of control | [5] 104 % of control | [6] 95 % of control

ClCCN(CCCl)c1ccc(/C=C\c2ccnc3ccccc23)cc1
inactive: dose: 100.0 mg/kg/injection, schedule: Q01DX009 (ip), vehicle: carboxymethylcellulose (CMC) 88 % of control | dose: 100.0 mg/kg/injection, schedule: Q04DX003 (ip), vehicle: other 96 % of control | dose: 200.0 mg/kg/injection, schedule: Q01DX009 (ip), vehicle: other 90 % of control | dose: 200.0 mg/kg/injection, schedule: Q04DX003 (ip), vehicle: other 96 % of control | dose: 400.0 mg/kg/injection, schedule: Q04DX003 (ip), vehicle: other 98 % of control

OC(/C=C/c1ccccc1)(c1ccccc1)c1ccccc1
inactive: [7] 94 % of control | [8] 93 % of control | [9] 96 % of control

O=C1COC(=O)N1
inactive: dose: 100.0 mg/kg/injection, schedule: Q01DX009 (ip), vehicle: saline 100 % of control | dose: 200.0 mg/kg/injection, schedule: Q01DX009 (ip), vehicle: saline 100 % of control | dose: 400.0 mg/kg/injection, schedule: Q01DX009 (ip), vehicle: saline 100 % of control

Cc1ccc(-n2c(O)c(N=Nc3ccc(Cl)cc3)c(=O)n(-c3ccc(I)cc3)c2=S)cc1
inactive: dose: 37.5 mg/kg/injection, schedule: Q01DX001 (ip), vehicle: Klucel (hydroxypropylcellulose) (HPC) 92 % of control | dose: 75.0 mg/kg/injection, schedule: Q01DX001 (ip), vehicle: Klucel (hydroxypropylcellulose) (HPC) 97 % of control | dose: 150.0 mg/kg/injection, schedule: Q01DX001 (ip), vehicle: Klucel (hydroxypropylcellulose) (HPC) 100 % of control

O=[N+]([O-])c1ccc(C=Nc2ccc([N+](=O)[O-])cc2)cc1
inactive: dose: 100.0 mg/kg/injection, schedule: Q04DX003 (ip), vehicle: saline 90 % of control | dose: 200.0 mg/kg/injection, schedule: Q04DX003 (ip), vehicle: saline 86 % of control | dose: 400.0 mg/kg/injection, schedule: Q04DX003 (ip), vehicle: saline 93 % of control

CCC(=O)OCC(C)([N+](=O)[O-])[N+](=O)[O-]
inactive: [1] 106 % of control | [2] 97 % of control | [3] 97 % of control | [4] 97 % of control | [5] 101 % of control | [6] 109 % of control

NCC(O)c1cccc(O)c1 (stereo not given)
inactive: dose: 50.0 mg/kg/injection, schedule: Q01DX001 (ip), vehicle: carboxymethylcellulose (CMC) 105 % of control | [10] 94 % of control | [11] 100 % of control | [12] 100 % of control

CCOC(=O)Cc1ccc([N+](=O)[O-])cc1
inactive: dose: 25.0 mg/kg/injection, schedule: Q04DX003 (ip), vehicle: Klucel (hydroxypropylcellulose) (HPC) 94 % of control | dose: 50.0 mg/kg/injection, schedule: Q04DX003 (ip), vehicle: Klucel (hydroxypropylcellulose) (HPC) 105 % of control | [7] 104 % of control and 105 % of control | dose: 150.0 mg/kg/injection, schedule: Q04DX003 (ip), vehicle: Klucel (hydroxypropylcellulose) (HPC) 107 % of control | dose: 225.0 mg/kg/injection, schedule: Q04DX003 (ip), vehicle: Klucel (hydroxypropylcellulose) (HPC) 100 % of control

Cc1cc(N(CCCl)CCCl)ccc1C=Nc1ccc(-c2nc(Cc3ccccc3)sc2C)cc1
inactive: [10] 117 % of control | [11] 98 % of control | [12] 110 % of control

CCCC[n+]1ccccc1Cc1ccccc1
inactive: dose: 6.25 mg/kg/injection, schedule: Q04DX003 (ip), vehicle: saline 102 % of control | dose: 12.5 mg/kg/injection, schedule: Q04DX003 (ip), vehicle: saline 97 % of control

CCOC(=O)CNC(=O)Oc1c(Cl)cccc1Cl
inactive: [13] 100 % of control | [14] 88 % of control | [15] 89 % of control

CC(C)S(=O)(=O)/C(Cl)=C(/Cl)C(Cl)=C(Cl)Cl
inactive: dose: 12.5 mg/kg/injection, schedule: Q01DX009 (ip), vehicle: Klucel (hydroxypropylcellulose) (HPC) 106 % of control | [13] 101 % of control | [14] 95 % of control | [15] 87 % of control

CCOC(=O)/C=C\n1c(=O)cc(C)c2ccccc21
inactive: [15] 98 % of control | [7] 89 % of control | [16] 108 % of control | [8] 92 % of control | [17] 108 % of control | [9] 87 % of control

CSc1ncc2c(=O)n(-c3ccccc3)[nH]c2n1
inactive: dose: 100.0 mg/kg/injection, schedule: Q01DX001 (ip), vehicle: Klucel (hydroxypropylcellulose) (HPC) 103 % of control | dose: 200.0 mg/kg/injection, schedule: Q01DX001 (ip), vehicle: Klucel (hydroxypropylcellulose) (HPC) 97 % of control | dose: 400.0 mg/kg/injection, schedule: Q01DX001 (ip), vehicle: Klucel (hydroxypropylcellulose) (HPC) 87 % of control

Clc1cccc(N=Cc2ccc3c(c2)OCO3)c1Cl
inactive: [15] 97 % of control | [16] 94 % of control | [17] 100 % of control

CCOC(=O)/C(C#N)=C1/C=C(N)CCC1
inactive: [10] 98 % of control | [11] 94 % of control | [12] 100 % of control
